Measured values as given in US20250270170A1, “2,3-DIMETHOXY-5-METHYL-1,4-BENZOQUINONE ALKYL ALCOHOL DERIVATIVE AND USE THEREOF” (BEIJING ANJIANXI BIO-MEDICAL TECHNOLOGY CO., LTD., priority 2021, published 2025).
Where “and” joins values, the source holds several entries; their conditions need not be identical. Equal entries are not always repeated. Marks after values point to notes of the source that are not given here.

Tests used:
[1] = Example 3: body weight of NCI-N87 tumor-bearing nude mice; format: in vivo, BALB/c nude mice; conditions: for Mean animal body weight / body weight loss rate: DDP 4/4/5/5 mg/kg i.p. QW×4
Method: The NCI-N87 cells in the logarithmic growth phase were collected, counted and resuspended in a serum-free RPMI-1640 medium, and the cell concentration was adjusted to 5×10^7 cells/mL. The cells were pipetted with a pipette to disperse them evenly, and the cells were put into a 50-mL centrifuge tube, which was placed in an ice box. A 1-mL syringe was used to draw the cell suspension, which was injected subcutaneously into the axilla of the front right limb of a nude mouse. Each animal was inoculated with 100 μL (5×10^6 cells/mouse) to establish an NCI-N87 transplanted tumor model in nude mice. After the inoculation, the animal status and tumor growth were regularly observed, and the tumor diameter was measured using an electronic vernier caliper. The data were input into an Excel spreadsheet to calculate the tumor volume. When the tumor volume reached 100 to 300 mm^3, 72 animals in good health and with similar tumor volumes were selected and divided into 9 groups (n=8) using randomized block method. The day of grouping was regarded as the first day of the assay (D1). After the start of the assay, the tumor diameter was measured twice a week, the tumor volume was calculated, and the animal body weight was also weighed and recorded. [table] The calculation formula of animal weight loss rate is: wherein BWt represents the animal body weight measured each time during the administration period; BWinitial represents the animal body weight when being grouped for administration. The assay data were calculated and processed statistically using Microsoft Office Excel 2007 software. Unless otherwise specified, the data were expressed as mean±standard error (Mean±SE), and t-test was used for comparison between two groups.

[2] = system: VEGF/VEGFR/p-VEGFR and other proteins in NCI-N87 transplanted tumor tissues; assay: Example 4: Western blot of NCI-N87 transplanted tumor tissue proteins; format: in vivo, nude mice; conditions: Western blot grayscale vs blank solvent group, compound of formula (I) 2 mg/kg
Method: Western Blot technology was used to quantitatively detect the expression of VEGF/VEGFR, Survivin and other proteins in tumor tissues. […] In this study, 50 μg of tumor tissue proteins were added to each well, and the working concentrations of the antibodies were diluted according to the instructions. Briefly: the tumor tissue was taken, lysed with an RIPA protein lysis solution containing 1% PMSF and mixed protease inhibitors, and centrifuged at 12000×g for 20 min to take the supernatant; the concentration of proteins was detected by BCA method; 10% SDS-PAGE gel electrophoresis was performed; the proteins from SDS-PAGE gel were transfered to a PVDF membrane by semi-dry […]; the membrane was blocked with a fast blocking buffer for 10 minutes, and a primary antibody at corresponding working concentration was added, and incubated at 4° C. overnight; the membrane was washed with TBST for 3 times, and incubated with a secondary antibody at room temperature for 1 h; after washing the membrane three times, an image was developed and saved, and the grayscale values were analyzed with Image lab; the anti-Vinculin antibody was used as an internal reference control antibody.
The grayscale of the Western blot bands were calculated with Image J software, and Graphpad Prism 5 was used for related statistical processing. A two-sided t-test was used for comparison between two groups. P>0.05 means no significance (NS), P<0.05 is *, […], and P<0.001 is ***.

[3] = system: human gastric cancer NCI-N87 transplanted tumor; assay: Example 7: tumor growth in NCI-N87 transplanted tumor model, alone and combined with DDP; format: in vivo, nude mice; conditions: DDP 4/2/1/4 mg/kg IP
[4] = Example 7: serum UREA content; format: in vivo, nude mice; conditions: DDP 4/2/1/4 mg/kg IP
[5] = Example 9: serum urea nitrogen (BUN) at the end of the assay; format: in vivo, nude mice; conditions: serum, end of assay, A549 model
Method: On the last day of the assay, CO2 inhalation anesthesia was used on the animals 1 hour after the administration (R01). Blood was collected through the heart, and a part of the whole blood was added with EDTA-K2 for anticoagulation. The plasma was separated by centrifugation at 4° C. and 1500 g for 10 minutes. The plasma was collected, and stored in a −40° C. to −20° C. freezer (if necessary, it can be used for the determination of the plasma drug concentration). No anticoagulant was added to the other part of the whole blood, and the serum was separated by centrifugation after the blood coagulated, which was used for the detection of blood urea nitrogen. After the blood collection, the tumor tissue was collected, weighed and photographed. Then, the tumor was divided into two parts, quickly cryopreserved by liquid nitrogen, and transferred to a −90° C. to −60° C. freezer for storage. Bilateral kidneys were collected and fixed in 10% formalin.

For `N.N.[Cl][Pt][Cl]` [DDP, cisplatin], the “Mean animal body weight” value ([1]; D13) was 18.5 ± 0.4 g, the “Mean animal body weight” value ([1]; D16) was 17.3 ± 0.4 g and the “body weight loss rate” value ([1]; D16) was “(6.2%)”. For the same molecule, the “Mean animal body weight” value ([1]; D20) was 17.6 ± 0.4 g, the “body weight loss rate” value ([1]; D20) was “(4.8%)” and the “Mean animal body weight” value ([1]; D23) was 17.5 ± 0.4 g. The “body weight loss rate” value ([1]; D23) was “(5.1%)”, the “Mean animal body weight” value ([1]; D27) was 18.3 ± 0.6 g and the “body weight loss rate” value ([1]; D27) was “(1.1%)”. The “Mean animal body weight” value ([1]; D30) was 17.6 ± 0.4 g, the “body weight loss rate” value ([1]; D30) was “(4.7%)” and the “Mean animal body weight” value ([1]; D34) was 17.7 ± 0.4 g. The “body weight loss rate” value ([1]; D34) was “(4.3%)”, the “Mean animal body weight” value ([1]; D37) was 17.2 ± 0.4 g and the “body weight loss rate” value ([1]; D37) was “(6.8%)”. The “Mean animal body weight” value ([1]; D44) was 16.8 ± 0.4 g, the “body weight loss rate” value ([1]; D44) was “(8.9%)” and the “effect on body weight compared with blank control group” value ([1]; NCI-N87 tumor-bearing nude mice, summary of Table 6) was “decreased significantly”. For the same molecule, the “expression of CyclinD1” value [2] was “up-regulated”, the “expression of VEGFA” value [2] was “down-regulated” and the “expression of VEGFR2” value [2] was “up-regulated”. The “expression of anti-apoptotic protein Survivin” value [2] was “down-regulated”, the “expression of cell cycle regulatory protein P21” value [2] was “down-regulated” and the “expression of p-VEGFR2” value [2] was “down-regulated”. The “expression of β-catenin” value [2] was “up-regulated”, the Mean tumor volume ([3]; D12) was 155 ± 6 mm^3 and the Mean tumor volume ([3]; D16) was 241 ± 6 mm^3. The “tumor growth inhibition rate (TGI)” value ([3]; D16) was 15%, the Mean tumor volume ([3]; D19) was 294 ± 6* mm^3 and the “tumor growth inhibition rate (TGI)” value ([3]; D19) was 18%. For the same molecule, the Mean tumor volume ([3]; D23) was 341 ± 13** mm^3, the “tumor growth inhibition rate (TGI)” value ([3]; D23) was 28% and the Mean tumor volume ([3]; D26) was 419 ± 22** mm^3. For the same molecule, the “tumor growth inhibition rate (TGI)” value ([3]; D26) was 34%, the Mean tumor volume ([3]; D30) was 543 ± 32** mm^3 and the “tumor growth inhibition rate (TGI)” value ([3]; D30) was 40%. For the same molecule, the Mean tumor volume ([3]; D33) was 642 ± 35** mm^3, the “tumor growth inhibition rate (TGI)” value ([3]; D33) was 39% and the Mean tumor volume ([3]; D37) was 810 ± 61* mm^3. The “tumor growth inhibition rate (TGI)” value ([3]; D37) was 36%, the Mean tumor volume ([3]; D40) was 911 ± 80* mm^3 and the “tumor growth inhibition rate (TGI)” value ([3]; D40) was 36%. For the same molecule, the Mean tumor volume ([3]; D44) was 1035 ± 95* mm^3, the “tumor growth inhibition rate (TGI)” value ([3]; D44) was 35% and the “Serum UREA content, Mean” value [4] was 10.28 mmol serum^−1. The “Serum UREA content, individual animals No1-No6” value [4] was 8.06 mmol serum^−1 and 12.81 mmol serum^−1 and 15.45 mmol serum^−1 and 8.28 mmol serum^−1 and 10.47 mmol serum^−1 and 6.62 mmol serum^−1, the “BUN (mmol/L) Mean ± SE” value ([5]; group B, DDP 4 mg/kg i.p. QW × 4) was 21.17 ± 1.43 mmol/L and the “BUN (mmol/L) Mean ± SE” value ([5]; group C, DDP 5/7/7/7 mg/kg i.p. QW × 4) was 28.56 ± 1.79 mmol/L.
